What is called EC50 is the concentration giving half of the maximal effect. As a reminder, the IC50 is the midpoint of a concentration-inhibition curve. As a reminder, the AC50 is the concentration at which the activity in the assay is half-maximal. Broadly, the CC50 is the concentration that lowers cell viability or growth by half.

Consider 3 compounds from ChEMBL document CHEMBL1201862, “PubChem BioAssay data set” (2004).

Assay [1] has as its target Peroxisome proliferator-activated receptor gamma/Nuclear receptor coactivator 1 (Homo sapiens, UniProt P37231). Description: TR-FRET dose response biochemical High Throughput Screening assay for agonists of the steroid receptor coactivator 1 (SRC-1) recruitment by the peroxisome proliferator-activated receptor gamma (PPAR gamma): non-selective agonists. [Related pubchem assays (depositor defined):AID1300, AID1808, AID504735, AID631]. It is filed as protein assay. (Time-resolved FRET reads energy transfer from a long-lived donor to a nearby acceptor.)

Assay [2] addresses Peroxisome proliferator-activated receptor gamma/Nuclear receptor coactivator 3 (Homo sapiens, UniProt P37231). As to the kind of experiment: TR-FRET dose response biochemical High Throughput Screening assay for agonists of the steroid receptor coactivator 3 (SRC-3) recruitment by the peroxisome proliferator-activated receptor gamma (PPAR gamma): non-selective agonists. [Related pubchem assays: 1301 (Confirmation screen.), 1048 (Primary screen.)]. The class given is functional.

For assay [3], the target named is G-protein coupled receptor 55 (Homo sapiens, UniProt Q9Y2T6). Description: GPR55 antagonists blocking LPI-driven arrestin recruitment, primary screen, imaging, U2OS, beta-arrestin-GFP, LPI agonist (AID 2013).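 Note: antagonist potency measured as reduced agonist-driven arrestin aggregation.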 The class given is functional. In general terms: Activated receptors often draw arrestin, which recruitment assays turn into a signal.
Assay [4] in a line: Luminescence-based dose response cell-based high throughput screening assay for cytotoxic compounds using the IEC-6 intestinal epithelial cell line. [Related pubchem assays: 1858 (Summary AID.), 1825 (Counterscreen.), 1907 (Confirmation screen.)]. The class given is functional.
The target in assay [5] is Peroxisome proliferator-activated receptor gamma/Nuclear receptor coactivator 2 (Homo sapiens, UniProt P37231). Description: TR-FRET dose response biochemical High Throughput Screening assay for agonists of the steroid receptor coactivator 2 (SRC-2) recruitment by the peroxisome proliferator-activated receptor gamma (PPAR gamma): non-selective agonists. [Related pubchem assays: 1297, 1032 ]. The class given is functional.
Chain of Peroxisome proliferator-activated receptor gamma/Nuclear receptor coactivator 2 (P37231 whole entry): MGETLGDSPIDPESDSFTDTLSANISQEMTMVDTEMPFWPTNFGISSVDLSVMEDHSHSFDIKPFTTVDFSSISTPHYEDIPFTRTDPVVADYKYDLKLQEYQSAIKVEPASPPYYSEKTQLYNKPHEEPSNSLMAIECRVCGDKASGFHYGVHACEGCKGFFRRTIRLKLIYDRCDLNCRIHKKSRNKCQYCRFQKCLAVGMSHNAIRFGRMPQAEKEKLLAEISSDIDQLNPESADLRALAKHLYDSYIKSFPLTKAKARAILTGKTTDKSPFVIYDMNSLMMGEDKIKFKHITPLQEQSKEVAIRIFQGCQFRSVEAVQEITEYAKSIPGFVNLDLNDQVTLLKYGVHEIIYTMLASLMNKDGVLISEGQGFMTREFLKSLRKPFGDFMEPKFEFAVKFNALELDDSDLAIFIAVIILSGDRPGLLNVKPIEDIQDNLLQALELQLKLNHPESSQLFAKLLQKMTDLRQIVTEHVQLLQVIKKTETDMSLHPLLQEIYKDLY
Chain of Peroxisome proliferator-activated receptor gamma/Nuclear receptor coactivator 2 (Q15596 whole entry, further chain): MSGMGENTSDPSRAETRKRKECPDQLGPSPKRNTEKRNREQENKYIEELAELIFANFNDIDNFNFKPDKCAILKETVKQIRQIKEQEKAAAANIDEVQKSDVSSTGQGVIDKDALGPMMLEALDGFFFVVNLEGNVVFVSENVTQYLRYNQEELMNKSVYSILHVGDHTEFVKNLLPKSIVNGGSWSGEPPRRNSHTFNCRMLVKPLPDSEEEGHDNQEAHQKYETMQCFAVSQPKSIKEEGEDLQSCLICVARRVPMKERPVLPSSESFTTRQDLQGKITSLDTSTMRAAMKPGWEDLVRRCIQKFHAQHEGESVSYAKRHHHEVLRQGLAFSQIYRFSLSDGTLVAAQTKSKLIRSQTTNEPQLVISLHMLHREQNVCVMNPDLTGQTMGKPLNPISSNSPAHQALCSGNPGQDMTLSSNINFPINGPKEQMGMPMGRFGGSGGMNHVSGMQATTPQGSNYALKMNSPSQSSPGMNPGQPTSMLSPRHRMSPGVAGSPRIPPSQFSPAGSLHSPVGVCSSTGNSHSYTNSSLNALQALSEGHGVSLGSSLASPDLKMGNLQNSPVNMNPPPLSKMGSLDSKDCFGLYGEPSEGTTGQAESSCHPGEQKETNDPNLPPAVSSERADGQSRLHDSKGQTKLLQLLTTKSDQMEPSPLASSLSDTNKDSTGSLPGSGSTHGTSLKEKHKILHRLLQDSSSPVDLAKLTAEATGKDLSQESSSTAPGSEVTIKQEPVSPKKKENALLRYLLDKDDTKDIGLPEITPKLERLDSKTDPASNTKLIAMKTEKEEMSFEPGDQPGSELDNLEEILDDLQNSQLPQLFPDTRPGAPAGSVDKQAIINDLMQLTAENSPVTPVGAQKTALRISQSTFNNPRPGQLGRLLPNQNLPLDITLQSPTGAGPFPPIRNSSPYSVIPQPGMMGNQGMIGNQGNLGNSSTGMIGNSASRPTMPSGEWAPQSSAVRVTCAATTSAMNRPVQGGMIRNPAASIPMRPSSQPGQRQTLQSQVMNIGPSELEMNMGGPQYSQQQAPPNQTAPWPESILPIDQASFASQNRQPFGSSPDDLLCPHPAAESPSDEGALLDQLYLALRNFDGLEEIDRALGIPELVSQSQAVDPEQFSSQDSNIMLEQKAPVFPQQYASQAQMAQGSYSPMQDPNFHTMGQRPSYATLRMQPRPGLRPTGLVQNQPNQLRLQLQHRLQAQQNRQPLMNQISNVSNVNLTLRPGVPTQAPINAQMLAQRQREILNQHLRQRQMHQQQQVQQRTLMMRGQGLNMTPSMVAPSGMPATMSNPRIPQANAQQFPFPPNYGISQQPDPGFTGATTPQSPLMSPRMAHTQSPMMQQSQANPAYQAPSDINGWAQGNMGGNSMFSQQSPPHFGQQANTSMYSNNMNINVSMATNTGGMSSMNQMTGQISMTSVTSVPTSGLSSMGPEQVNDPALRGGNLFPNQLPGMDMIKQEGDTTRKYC

Assay [6] has as its target Induced myeloid leukemia cell differentiation protein Mcl-1 (Homo sapiens, UniProt Q07820). It is filed as functional.
Assay [7] addresses Glucose-6-phosphate 1-dehydrogenase (Homo sapiens, UniProt P11413). Description: human G6PD enzyme inhibitors, dose response, selectivity assay for P. falciparum G6PD inhibitor project, biochemical, fluorescence (AID 504792). The class given is functional.
For assay [8], the target named is Eukaryotic translation initiation factor 4E (Mus musculus, UniProt P63073). As to the kind of experiment: eIF4E–eIF4G protein interaction inhibitors, dose response, biochemical, TR-FRET (AID 855).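 Note: potency for disrupting eIF4E binding to eIF4GI seen as loss of FRET.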 The class given is functional.
Chain of Eukaryotic translation initiation factor 4E (P63073 whole entry): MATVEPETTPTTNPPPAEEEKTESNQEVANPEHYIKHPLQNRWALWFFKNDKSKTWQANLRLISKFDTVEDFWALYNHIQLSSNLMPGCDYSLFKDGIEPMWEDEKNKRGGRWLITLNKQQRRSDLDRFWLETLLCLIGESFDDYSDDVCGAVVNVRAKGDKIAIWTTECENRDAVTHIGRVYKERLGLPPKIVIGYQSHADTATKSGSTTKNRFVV
Another assay addresses Nonstructural protein 1 (Influenza A virus, UniProt Q194T2). It is filed as functional, Influenza A virus (A/California/07/2009(H1N1)).
The target in assay [9] is Heat shock protein HSP 90-alpha (Homo sapiens, UniProt P07900). It is filed as functional, organism-based.
A short description of assay [10]: Shn3 3'UTR reporter inhibitors, dose response, cell-based, Clone20 osteoblasts, firefly luciferase, cherry-picked (AID 624132).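 Note: firefly luciferase luminescence from reporter carrying the Shn3 3'UTR in osteoblasts.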 The class given is functional.
A short description of assay [11]: HepG2 cell cytotoxicity, dose response, cytotoxicity control for Shn3 inhibitor project, CellTiter-Glo, cherry-picked (AID 624134). It is filed as functional, cell-based. Background: Cellular ATP, detected with luciferase, serves as a proxy for viable cell number.
The nature of assay [12]: control 3'UTR Renilla luciferase suppression, dose response, counter-screen for Shn3 inhibitor project, cell-based, Clone20-Shn3RL, cherry-picked (AID 624133). The class given is functional.
Another assay deals with T-cell. As to the kind of experiment: inhibitors of CD8+ T cell–vesicle binding, dose response, mouse 2C CD8+ T cells, flow cytometry (AID 485284). It is filed as functional.
A short description of assay [13]: cytotoxicity in HEK-293T cells, dose response, cytotoxicity control for TCR NF-kB inhibitor project, luminescence, T-cell screen hits (AID 489026).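 Note: cells exposed to compound about 14 hours before the viability readout.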 The class given is functional, cell-based.
Assay [14] can be described thus: THP-1 cell cytotoxicity, dose response, cytotoxicity control for Vif-APOBEC3G degradation inhibitor project, THP-1 cells (AID 1117359). Conditions: Human immunodeficiency virus 1, THP-1. It is filed as functional.

Calls of active or inactive are those of the source.

Chain of Glucose-6-phosphate 1-dehydrogenase (P11413 whole entry): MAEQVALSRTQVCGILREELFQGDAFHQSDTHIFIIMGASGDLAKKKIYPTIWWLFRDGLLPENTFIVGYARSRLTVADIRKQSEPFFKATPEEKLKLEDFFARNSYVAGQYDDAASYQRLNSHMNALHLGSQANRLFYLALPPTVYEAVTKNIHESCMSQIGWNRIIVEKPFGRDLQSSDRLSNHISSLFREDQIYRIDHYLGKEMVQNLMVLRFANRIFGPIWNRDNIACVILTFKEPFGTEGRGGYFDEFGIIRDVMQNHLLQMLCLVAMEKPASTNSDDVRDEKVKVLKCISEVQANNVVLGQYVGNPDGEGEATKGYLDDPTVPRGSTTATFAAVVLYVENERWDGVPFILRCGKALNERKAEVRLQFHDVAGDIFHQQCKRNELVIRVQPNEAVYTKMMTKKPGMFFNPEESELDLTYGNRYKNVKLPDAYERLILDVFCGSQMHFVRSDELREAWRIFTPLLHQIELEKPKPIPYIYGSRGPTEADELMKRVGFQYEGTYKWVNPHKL
Chain of Peroxisome proliferator-activated receptor gamma/Nuclear receptor coactivator 1 (P37231 whole entry): as the sequence (P37231 whole entry) above
Chain of Peroxisome proliferator-activated receptor gamma/Nuclear receptor coactivator 1 (Q15788 whole entry, further chain): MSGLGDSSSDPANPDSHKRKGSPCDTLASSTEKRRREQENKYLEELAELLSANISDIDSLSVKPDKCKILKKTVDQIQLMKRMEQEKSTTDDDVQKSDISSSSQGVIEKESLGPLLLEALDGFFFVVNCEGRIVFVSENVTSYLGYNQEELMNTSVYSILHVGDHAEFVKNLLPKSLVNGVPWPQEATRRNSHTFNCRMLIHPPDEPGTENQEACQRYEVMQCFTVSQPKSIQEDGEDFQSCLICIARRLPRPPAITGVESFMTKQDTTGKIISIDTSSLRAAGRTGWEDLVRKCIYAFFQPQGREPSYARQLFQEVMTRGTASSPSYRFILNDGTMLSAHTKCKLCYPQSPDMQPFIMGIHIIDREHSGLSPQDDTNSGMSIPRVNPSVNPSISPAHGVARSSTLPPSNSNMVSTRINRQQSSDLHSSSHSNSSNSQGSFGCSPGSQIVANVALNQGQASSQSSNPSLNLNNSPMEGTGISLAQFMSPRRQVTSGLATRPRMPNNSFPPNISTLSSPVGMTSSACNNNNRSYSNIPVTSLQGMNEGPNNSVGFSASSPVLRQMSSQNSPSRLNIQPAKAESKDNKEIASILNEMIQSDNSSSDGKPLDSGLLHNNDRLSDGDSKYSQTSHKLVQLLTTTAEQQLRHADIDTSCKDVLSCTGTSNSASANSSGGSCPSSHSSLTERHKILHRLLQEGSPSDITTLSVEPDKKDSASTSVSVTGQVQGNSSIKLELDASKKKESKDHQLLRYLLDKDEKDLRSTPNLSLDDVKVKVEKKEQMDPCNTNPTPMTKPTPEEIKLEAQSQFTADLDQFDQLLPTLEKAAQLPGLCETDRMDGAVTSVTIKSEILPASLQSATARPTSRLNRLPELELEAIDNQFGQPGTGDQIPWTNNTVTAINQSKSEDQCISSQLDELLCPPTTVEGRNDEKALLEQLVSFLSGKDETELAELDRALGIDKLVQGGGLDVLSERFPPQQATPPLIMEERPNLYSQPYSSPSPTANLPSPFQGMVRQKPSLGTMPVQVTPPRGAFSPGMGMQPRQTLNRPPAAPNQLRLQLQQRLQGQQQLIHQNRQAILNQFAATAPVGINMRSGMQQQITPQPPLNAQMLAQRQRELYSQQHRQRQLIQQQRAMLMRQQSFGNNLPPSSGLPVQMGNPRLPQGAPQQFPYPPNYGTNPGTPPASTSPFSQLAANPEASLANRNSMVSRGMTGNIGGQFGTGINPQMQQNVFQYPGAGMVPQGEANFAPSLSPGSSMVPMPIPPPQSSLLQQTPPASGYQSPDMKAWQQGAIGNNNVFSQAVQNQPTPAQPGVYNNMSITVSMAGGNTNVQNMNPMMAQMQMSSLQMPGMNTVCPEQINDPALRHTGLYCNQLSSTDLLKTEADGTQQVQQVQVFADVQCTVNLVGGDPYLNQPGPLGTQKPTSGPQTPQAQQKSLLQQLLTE
Chain of Nonstructural protein 1 (Q194T2 whole entry): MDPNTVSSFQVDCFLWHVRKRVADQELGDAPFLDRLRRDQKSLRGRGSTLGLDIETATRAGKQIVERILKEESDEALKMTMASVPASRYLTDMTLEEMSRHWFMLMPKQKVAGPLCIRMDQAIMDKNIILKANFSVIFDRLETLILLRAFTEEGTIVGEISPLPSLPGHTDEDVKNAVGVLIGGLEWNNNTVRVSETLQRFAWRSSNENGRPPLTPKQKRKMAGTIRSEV

Take `CN(C)c1ccc(/C=C/c2ccc3c4ccccc4ccc3[n+]2-c2ccccc2)cc1`: the values for the EC50 in assay [1], in [2] and in assay [5] were 19.2 µM (inactive), 85.7 µM (not active) and 17 µM (not active), respectively. The IC50 in assay [3] was 0.699 µM (active); in [4], 2.41 µM (active); in assay [6] it was 4.64 µM (not active); in assay [7], > 80 µM (inactive); in assay [8] it was 50 µM (inactive); at Nonstructural protein 1, 2.36 µM (active). The AC50 was 3.19 µM (active) in assay [9], < 0.26 µM (active) in assay [10], 2.21 µM (active) in assay [11] and 4.32 µM (active) in assay [12].
For the compound `O=C(OCCOc1cccc(Cl)c1)c1ccc(F)c(S(=O)(=O)N2CCOCC2)c1`, the concentration for a half-maximal effect (EC50) in the assay with T-cell was 12.4 µM (active).
Take `CC1CC(C)CN(S(=O)(=O)c2ccc(NC(=O)c3ccc(O)nc3)cc2)C1` (stereo unspecified): the IC50 in [13] was > 80 µM (inactive). Also, the CC50 in [14] was 19.7 µM (active).
